The record followed here is patent US7109160B1, “Peptides containing the motif IGD and their use as cell migration modulators” (University of Dundee, priority 1997, dated 2006).

The subject of test [1] is human skin fibroblasts (SK319 and FSF44). Briefly: Inhibitors of early and late aspects of IGDS activity (pre-incubation protocols, collagen gel assay). It counts as cell-based. Also noted: key to Inhibitory activity: early events / Inhibitory activity: late events: yes(+); no(−). The note with it: for inhibition at 10 µg/mL: Homo sapiens, Skin fibroblast; for effect on IGDS-induced cell migration (late events), in words / effect on initial IGDS signalling (early events), in words: Table 3. How it is done: (§1) Migration Assays. In the collagen gel assay, pre-formed 2 ml gels were overlaid with 1 ml of serum-free MEM (controls) or serum-free MEM containing the requisite concentration of effector molecule to give the desired final concentration. Trypsinised fibroblasts were suspended in serum-free MEM to give an inoculum containing 2×10^5 cells/ml and 1 ml of this was plated onto replicate control and test gels.
The specific effects of potential inhibitory molecules on such early and late events were examined by using the following experimental protocol: (a) pre-incubating cells with IGDS (SEQ ID NO 2) and inhibitor and then assaying these treated cells in the absence of both IGDS (SEQ ID NO 2) and inhibitor (note: this protocol provides data concerning the effects of inhibitor on the early events mediating IGDS (SEQ ID NO 2) activity), (b) pre-incubating cells with neither IGDS (SEQ ID NO 2) nor inhibitor and assaying them in the presence of both (the effects of inhibitor on both early and late events), (c) pre-incubating cells with IGDS (SEQ ID NO 2) alone and then assaying them in the presence of inhibitor only (the effects of inhibitor on late events), and finally, (d) pre-incubating cells with inhibitor alone and then assaying them in the presence of IGDS (SEQ ID NO 2) to provide control information regarding possibly persistent effects of inhibitor which would confound data interpretation. Data presented in Table IA are concerned with the effects of the synthetic RGDS (SEQ ID NO 6) and RGES (SEQ ID NO 5).

Test [2] shares this test system. Put plainly: Native collagen gel migration assay. It counts as cell-based. The settings on record: for concentration at which significant bioactivity (migration stimulation) is first manifest: collagen gel assay, FIG. 1A; for effect on cell migration into native type I collagen gels: human dermal fibroblasts, 4-day incubation, FIG. 1. As for the experimental part: Assays were performed as described in Materials and Methods in Example 1. Results are normalised by expressing them as “relative stimulation” of migration, this being calculated by dividing the percentage of cells in the gel matrix for each experimental point by the control value obtained in that particular experiment. Data are presented as the mean ±SD of five experiments. For clarity, the shaded area indicates the spread of standard deviations for data points not plotted with error bars. Upper panel: results obtained with the indicated synthetic peptides. Lower panel: results obtained with native fibronectin (FN), and its cell-binding (Cell-BD) and gelatin-binding (Gel-BD) domains.
(§2) Cells. Experiments were performed with two lines of human skin fibroblasts (SK319 and FSF44, between passage 10–18) shown to be free of mycoplasmal contamination by staining with Hoechst 33256. Identical results were obtained with both lines and these cells are consequently not individually identified in the Figures. Stock cultures were maintained in Eagle's Minimal Essential (MEM), as previously described^7.
as §1

Test [3] has the same test system. Briefly: Collagen gel assay with combinations of peptides (co-incubation). It is filed as cell-based. The note with it: FIG. 3B, 3C. As for the experimental part:
The collagen gel assay was performed in the presence of various combinations of the indicated peptides and the percentage of cells present within the gel matrix measured after a four-day incubation period. Data are expressed as mean ±SD obtained in three experiments. Panel A: combinations of the gelatin-binding domain (Gel-BD) and IGDS (SEQ ID NO 2); Panel B: combinations of IGDS (SEQ ID NO 2) and RGDS (SEQ ID NO 6); Panel C: combinations of IGDS (SEQ ID NO 2) and the cell-binding domain (Cell-BD).
as §1
The possible mechanistic relationship between IGDS (SEQ ID NO 2) and the gelatin-binding domain in which it is contained was further examined by co-incubating cells with suboptimal concentrations of each.
Possible mechanistic interactions between IGDS (SEQ ID NO 2) and RGDS (SEQ ID NO 6) were studied in similar co-incubation experiments.

A further test deals with chick yolk sac membrane. Put plainly: Chick yolk sac membrane angiogenesis assay. It is filed as in vivo. The note with it: for Positive responses (%) / Positive responses (positive/total): 3000 ng/pellet, assessed after 24 hr; for angiogenic response in the chick yolk sac membrane, in words: in vivo. The source says:
Dried methylcellulose pellets containing the test samples and control pellets (lacking the test samples) were placed on the yolk sac membrane of 6-day chick embryos, as described in Materials and Methods in Example 1. The elicited reaction was checked after six hours and assessed after 24 hr by observation of living embryos with a stereomicroscope. […] After assessment at 24 hr, selected membranes were fixed in 2.5% EM grade glutaraldehyde in 0.2 M phosphate buffer, pH 7.4. These preparations were then stained with 1% toluidine blue and photographed using a Leica DM LB microscope. […] Bar=250 μm.
Chick yolk sac membrane angiogenesis assay. The assay was performed essentially as described by Gush et al (1990) J. Med. Engineer. Tech. 14, 205–209. Accordingly, four-day-old fertilised eggs were cracked in a tumbler, covered with a Petri dish and incubated at 37° C. Two days later dried methylcellulose pellets containing the test samples and control pellets (lacking the test samples) were placed on the yolk sac membrane. The elicited angiogenic reaction was assessed after 24 hr by observation of living embryos with a stereomicroscope. Selected membranes were fixed in 2.5% EM grade glutaraldehyde in 0.2 M phosphate buffer (pH 7.4), dissected, stained with 1% toluidine blue and mounted on glass slides for photomicroscopy.

Test [4] concerns human skin fibroblasts (SK319 and FSF44). Briefly: Transmembrane migration assay (membranes coated with native type I collagen or gelatin). It counts as cell-based. The settings on record: FIG. 2. How it is done: Assays were performed as described in Materials and Methods in Example 1. Results from five experiments are presented as mean ±SD. Shaded area indicates the spread of standard deviations for data points not plotted with error bars. Panel A: results obtained with IGDS (SEQ ID NO 2) and the gelatin-binding domain (Gel-BD) on membranes coated with native collagen and gelatin. Panel B: results obtained with RGDS (SEQ ID NO 6), native fibronectin (FN), and its cell-binding domain (Cell-BD).
as §2
Polycarbonate membranes used in the transmembrane assay were immersed in an aqueous solution containing 10 μg/ml of either native type I collagen or heat-denatured type I collagen (gelatin) overnight at 37° C. and then air-dried. Assays were performed as previously described^7.

Setting [5] is: Genistein 10 μg/ml, PD98059 2.0 μM, PKA inhib 5 nM.
The mark [6] stands for this setting: Genistein 10 μg/ml, PD98059 2.0 μM, PKA inhib 5 nM, no pre-incubation, IGDS and inhibitor in assay (early and late events).
Where [7] appears, read: Genistein 10 μg/ml, PD98059 2.0 μM, PKA inhib 5 nM, pre-incubation with IGDS alone, inhibitor only in assay (late events).
The mark [8] stands for this setting: Genistein 10 μg/ml, PD98059 2.0 μM, PKA inhib 5 nM, pre-incubation with IGDS and inhibitor, neither in assay (early events).
[9] abbreviates: peptide 10.0 μ molar, no pre-incubation, IGDS and peptide in assay (early and late events).
The mark [10] stands for this setting: peptide 10.0 μ molar, pre-incubation with IGDS alone, peptide only in assay (late events).
The mark [11] stands for this setting: peptide 10.0 μ molar, pre-incubation with IGDS and peptide, neither in assay (early events).

A word on the inhibition: it is the change of the read-out against control, counted positive when it falls. Usually % inhibition stands for the relative decrease from the control value, in per cent.

In the case of `O=c1c(-c2ccc(O)cc2)coc2cc(O)cc(O)c12` [Genistein], the “Inhibitory activity: early events” value in test [1] (setting [5]) is “early events: +”. Further, the “Inhibitory activity: late events” value in test [1] (setting [5]) was “late events: −”. The inhibition at 10 µg/mL in test [1] (setting [6]) worked out at 94.1 ± 6.5%; in test [1] (setting [7]), 0.9 ± 2.9%; in test [1] (setting [8]) it was 96.7 ± 4%. Also, the “effect on IGDS-induced cell migration (late events), in words” value (“effect on IGDS-induced cell migration” for short) in test [1] is “did not affect”. Further, the “effect on initial IGDS signalling (early events), in words” value (“effect on initial IGDS signalling” for short) in test [1] was “selectively blocked”.
For `COc1cccc(-c2cc(=O)c3ccccc3o2)c1N` [PD98059], in test [1] (setting [5]), the “Inhibitory activity: early events” value was “early events: +” and the “Inhibitory activity: late events” value was “late events: +”. Moreover, in test [1] (setting [6]), the “% inhibition” value is 99.8 ± 3.8%. Also, the “% inhibition” value in test [1] (setting [7]) came out at 39.4 ± 5.0%. Besides, the “% inhibition” value in test [1] (setting [8]) came out at 90.5 ± 3.1%. Moreover, in test [1], the “effect on IGDS-induced cell migration” value is recorded as “blocked” and the “effect on initial IGDS signalling” value was “blocked”.
“Ile-Gly-Asp (IGD; listed as Homo sapiens)”: in test [2], the “concentration at which significant bioactivity (migration stimulation) is first manifest” value fell in the range of 10 to 100 µM and the “effect on cell migration into native type I collagen gels” value is on record as “stimulated cell migration”.
In the same order, the values of “Ile-Gly-Asp-Gin (IGDQ; listed as Homo sapiens)” are 0.1 µM and “stimulated cell migration”.
Take “RGDS: structurally related RGDS tetrapeptide (synthetic peptide) (Peptide related to IGDS)”: in test [2], the “effect on cell migration into native type I collagen gels” value is “devoid of migration stimulating activity”. In test [3], the “concentrations required for inhibition of IGDS activity” value was “pmolar” and the “effect on the migration stimulating activity of IGDS (co-incubation)” value was “effectively inhibited”. In the test on chick yolk sac membrane, the “Positive responses (%)” value is “(9) %”; the “Positive responses (positive/total)” value is reported as 1/11; the “angiogenic response in the chick yolk sac membrane, in words” value was “inactive”. For the same compound, the “effect on cell migration through gelatin-coated membranes” value in test [4] (gelatin (heat-denatured type I collagen)-coated membranes) was “inactive”. Also, the “effect on cell migration through membranes coated with native collagen” value in test [4] (native type I collagen-coated membranes) is “inactive”. Also, in test [1], the “effect on IGDS-induced cell migration” value is “inhibited” and the “effect on initial IGDS signalling” value is “inhibited”. In test [1] (peptide 10.0 μ molar), the “Inhibitory activity: early events” value was “early events: +” and the “Inhibitory activity: late events” value was “late events: +”. Besides, in test [1] (setting [9]), the “% inhibition” value is on record as 92.3 ± 2.1%. Moreover, in test [1] (setting [10]), the “% inhibition” value is on record as 96.5 ± 5.7%. The “% inhibition” value in test [1] (setting [11]) was found to be 96.2 ± 4.8%.
For “RGES: RGES synthetic peptide (Peptide related to IGES)”, the “effect on the migration stimulating activity of IGDS (co-incubation)” value in test [3] is “no effect”. In addition, in the test with chick yolk sac membrane, the “Positive responses (%)” value is reported as “(10) %”; the “Positive responses (positive/total)” value is listed as 1/10; the “angiogenic response in the chick yolk sac membrane, in words” value was “inactive”. Further, in test [1], the “effect on IGDS-induced cell migration” value is “inactive” and the “effect on initial IGDS signalling” value is “inactive”. In test [1] (peptide 10.0 μ molar), the “Inhibitory activity: early events” value was “early events: −” and the “Inhibitory activity: late events” value is given as “late events: −”. In addition, in test [1] (setting [9]), the “% inhibition” value is reported as 1.2 ± 2.1%. The “% inhibition” value in test [1] (setting [10]) is 0.3 ± 2.8%. The “% inhibition” value in test [1] (setting [11]) is on record as −1.0 ± 3.0%.
